Legend:
A549/DX cells [1] = assay: In vivo tumor growth of A549/DX xenografts; set-up: species or system nu/nu BALB/C mice; conditions: A549/DX xenografts, 50 mg/kg cis-Pt i.p.
Experimental: In order to translate in vivo the capability of F397, F400, and F421 to act as “sensitizers”, A549/DX cells were implanted in immune-deficient BALB/C mice, and once the tumor reached the volume of 50 mm^3, the mice were randomized and treated […] with the vehicle (saline solution) and/or cis-Pt.
(§1) Here, 1 × 10^6 A549/DX cells were mixed with 100 μl Matrigel implanted in 6-week-old female nu/nu BALB/C mice (Charles River Laboratories Italia, Calco, Italy), housed (5 per cage) under 12 h light/dark cycle, with food and drinking provided ad libitum. Tumor growth was measured daily by caliper, according to the equation (LxW2)/2, where L = tumor length and W = tumor width. When the tumor reached the volume of 50 mm^3, mice (n = 8/group) were randomized and treated as reported in the following groups, treated on day 1, 7, and 14 after randomization: (1) vehicle group (ctrl), treated intraperitoneally (i.p.) with 100 µL saline solution; (2) cis-Pt group, treated i.p. with 50 mg/kg cis-Pt, dissolved in 100 µL water/10% DMSO solution, according to Kopecka et al., 2015 [53]; (3) F397 group, treated i.p. with 750 nmoles of the compound, dissolved in 100 µL water/10% DMSO solution, corresponding to the maximum tolerated dose (not shown and Table 2); (4) F421 group, treated i.p. with 750 nmoles of the compound, dissolved in 100 µL water/10% DMSO solution i.p, corresponding to the maximum tolerated dose (not shown and Table 2); (5) cis-Pt/F397 group, treated i.p. with 50 mg/kg Cis-Pt and 750 nmoles of F397; (6) cis-Pt/F421 group, treated i.p. with 50 mg/kg cis-Pt and 750 nmoles of F421; (7) MK571 group, treated i.p. with 3 mg/kg MK571 dissolved in 100 µL water/10% DMSO solution, according to Jones et al., 1989 [56]; (8) MK571/F397 group, treated i.p. with 3 mg/kg MK571 and 750 nmoles of F397; (9) MK571/F421 group, treated i.p. with 3 mg/kg MK571 and 750 nmoles of F421. Tumor volumes were monitored daily. Animals were euthanized at day 21 after randomization with zolazepam (0.2 mL/kg) and xylazine (16 mg/kg). Lactate dehydrogenase (LDH), aspartate aminotransferase (AST), alanine aminotransferase (ALT), alkaline phosphatase (AP), creatinine, and creatine phosphokinase (CPK) were measured on blood samples collected immediately after euthanasia, using commercially available kits from Beckman Coulter Inc. (Beckman Coulter, Miami, FL, USA).

A549/DX cells [2] = assay: Cell viability (MTT) of A549/DX cells at 72 h, alone and in co-administration; type: cell-based, human
Experimental: Indeed, the accurate detection of cell viability in A549 cells was critical in calculating the SR in a reliable manner.
First, we wondered if there was a correlation between the inhibition of the MRP1 protein and the CS properties of the compounds.
(§2) The determination of cell growth was performed using an MTT assay at 24 or 72 h. On day 1, 10,000 cells/well were seeded into 96-well plates in a volume of 100 μL. […] In all the experiments, the various drug solvents (ethanol, DMSO) were added in each control to evaluate a possible solvent cytotoxicity. After the established incubation time with drugs, 10 μL MTT (0.5 mg/mL) was added to each well, and after 3 h incubation at 37°C, the supernatant was removed. The formazan crystals were solubilized using 100 μL of DMSO and the absorbance values at 570 and 630 nm were determined on the microplate reader Victor 3 from PerkinElmer Life Sciences. The absorbance of the untreated cells was considered equal to 100% cell viability; the viability of cells measured in each experimental condition was expressed as a percentage of viable cells in the considered condition vs. the viability of the untreated cells.

[3] = Hemato-chemical parameters and tolerability in treated mice; type: in vivo; conditions: blood after euthanasia day 21; i.p. treatment day 1, 7, 14; means ± SD, n = 8
Experimental: as §1

MDCK-MRP1 cells = assay: Antiproliferative MTT assay in MDCK-wt and MDCK-MRP1 cells, selectivity ratio; type: cell-based, canine; conditions: EC50 of MDCK cells/EC50 of MDCK-MRP1 cells
Experimental: Within the search for novel CS agents acting on MRP1 proteins, the compounds selected among the different series of sigma-2 ligands were investigated for their activity at MRP1, paralleled with their cytotoxicity in the parental Madin–Darby canine kidney (MDCK-wt) cells and in the MDR-derived cells (MDCK-MRP1) for the determination of their SR (EC50 parental cells/EC50 MDR cells). The activity at the MRP1 pump was determined measuring the transport inhibition of the pro-fluorescent probe Calcein-AM, an MRP1 substrate, in the MRP1-overexpressing cell line (MDCK-MRP1) by the in vitro biological assay usually performed to study an MRP1 interaction. […] The SR was measured as the EC50 of the MDCK cells/EC50 of the MDCK-MRP1 cells.
as §2

MRP1 = MRP1 (Homo sapiens, UniProt P33527); assay: Calcein-AM transport inhibition in MDCK-MRP1 cells (MRP1 activity)
MRP1, sequence (P33527 whole entry): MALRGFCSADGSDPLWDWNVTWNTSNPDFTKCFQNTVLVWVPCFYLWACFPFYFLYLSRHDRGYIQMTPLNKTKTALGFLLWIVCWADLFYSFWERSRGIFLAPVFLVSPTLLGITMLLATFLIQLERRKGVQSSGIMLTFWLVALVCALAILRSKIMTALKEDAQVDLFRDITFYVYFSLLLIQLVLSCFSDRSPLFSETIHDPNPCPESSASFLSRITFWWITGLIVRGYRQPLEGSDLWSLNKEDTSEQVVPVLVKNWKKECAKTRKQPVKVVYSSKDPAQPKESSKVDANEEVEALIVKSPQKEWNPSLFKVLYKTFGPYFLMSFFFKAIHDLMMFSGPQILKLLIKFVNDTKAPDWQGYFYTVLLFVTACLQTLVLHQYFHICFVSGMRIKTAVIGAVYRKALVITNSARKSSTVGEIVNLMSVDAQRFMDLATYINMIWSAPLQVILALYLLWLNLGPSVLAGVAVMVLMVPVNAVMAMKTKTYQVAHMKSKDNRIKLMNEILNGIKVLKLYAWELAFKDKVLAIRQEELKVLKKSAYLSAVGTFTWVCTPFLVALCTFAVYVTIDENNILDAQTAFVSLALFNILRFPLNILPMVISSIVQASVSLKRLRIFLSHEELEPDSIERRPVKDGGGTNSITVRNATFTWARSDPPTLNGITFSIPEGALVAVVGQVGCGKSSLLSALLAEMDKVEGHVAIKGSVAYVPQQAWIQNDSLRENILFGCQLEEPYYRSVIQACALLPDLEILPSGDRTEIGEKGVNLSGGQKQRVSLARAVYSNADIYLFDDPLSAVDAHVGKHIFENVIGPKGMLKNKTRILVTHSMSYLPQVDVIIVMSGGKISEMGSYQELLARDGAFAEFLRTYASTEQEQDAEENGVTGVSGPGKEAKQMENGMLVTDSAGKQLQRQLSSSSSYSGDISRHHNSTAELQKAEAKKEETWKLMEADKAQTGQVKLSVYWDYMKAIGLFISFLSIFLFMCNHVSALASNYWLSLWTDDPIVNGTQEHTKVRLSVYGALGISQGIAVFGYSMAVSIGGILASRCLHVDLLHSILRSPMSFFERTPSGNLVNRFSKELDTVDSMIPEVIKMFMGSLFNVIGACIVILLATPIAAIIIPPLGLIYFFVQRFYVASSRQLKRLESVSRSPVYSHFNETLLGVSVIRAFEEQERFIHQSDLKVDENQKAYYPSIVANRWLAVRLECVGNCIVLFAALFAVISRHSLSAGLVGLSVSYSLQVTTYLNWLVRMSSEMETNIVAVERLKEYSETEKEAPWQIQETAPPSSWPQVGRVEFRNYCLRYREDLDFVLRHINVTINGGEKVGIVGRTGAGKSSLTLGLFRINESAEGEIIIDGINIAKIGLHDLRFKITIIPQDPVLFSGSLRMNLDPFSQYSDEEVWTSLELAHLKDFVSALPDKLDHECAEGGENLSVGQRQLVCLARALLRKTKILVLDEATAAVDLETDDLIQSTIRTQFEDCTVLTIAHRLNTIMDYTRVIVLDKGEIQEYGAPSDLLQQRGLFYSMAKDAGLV
Experimental: Each cell line (30,000 cells per well) was seeded into a black CulturePlate 96/well plate with a 100 μL medium and allowed to become confluent overnight. […] In these experimental conditions, the Calcein cell accumulation in the absence and in the presence of the tested compounds was evaluated and the fluorescence basal level was estimated with the untreated cells. In treated wells, the increase in fluorescence with respect to the basal level was measured. EC50 values were determined by fitting the fluorescence increase percentage vs. log(dose).

Row | SMILES | Tumor growth, cis-Pt alone (A549/DX cells [1]) | Sensitivity to cis-Pt co-administrated with MK571 (A549/DX cells [2]; cis-Pt 25 μM + MK571 25 μM) | ALT [3] [U/L] | AP [3] [U/L] | AST [3] [U/L] | CPK [3] [U/L] | LDH [3] [U/L] | SR (selectivity ratio) (MDCK-MRP1 cells) | EC50 (MRP1) [µM] | Cytotoxicity / antiproliferative effect alone (A549/DX cells [2]; 25 μM alone)
1 | N.N.[Cl][Pt][Cl] [Cis-Pt, cis-platinum, reference compound] | resistance of A549/DX against the standard chemotherapy regimen | restored when co-administrated with MK571 | 41 ± 9 | 129 ± 14 | 91 ± 34 | 259 ± 98 | 7092 ± 542 |  |  | 
2 | Fc1ccc(-n2cc(CCCCN3CCC4(CC3)OCc3ccccc34)c3ccccc32)cc1 [Siramesine, siramesine, reference compound] |  |  |  |  |  |  |  | 0.56 | 23.2 ± 4.5 | 
3 | CN(C)C(=O)CCSC(SCCC(=O)O)c1cccc(/C=C/c2ccc3ccc(Cl)cc3n2)c1 (stereo not drawn) [MK571, reference compound] |  |  | 41 ± 7 | 117 ± 33 | 101 ± 33 | 334 ± 81 | 7141 ± 927 |  |  | not cytotoxic
